Assays:
[1] = system: Puccinia triticina; assay: Use Example 7: preventative control of brown rust on wheat (PUCCRT P10); format: in vivo, Puccinia triticina (syn. P. recondita); settings: 16 ppm, ten days before inoculation, 6 days, untreated 80
Description: (§1) The compound was dissolved in a mixture of acetone and/or dimethylsulfoxide and the wetting agent/emulsifier Wettol, which is based on ethoxylated alkylphenoles, in a ratio (volume) solvent-emulsifier of 99 to 1 to give a total volume of 5 ml. Subsequently, water was added to total volume of 100 ml. This stock solution was then diluted with the described solvent-emulsifier-water mixture to the final concentration given in the tables below.
Use Example 7. Preventative Control of Brown Rust on Wheat Caused by Puccinia triticina (Syn. P. recondita) (PUCCRT P10)
The first two developed leaves of potted wheat seedling were sprayed to run-off with previously described spray solution, containing the concentration of active ingredient or their mixture as described below. Ten days later the plants were inoculated with spores of Puccinia triticina. To ensure the success of the artificial inoculation, the plants were transferred to a humid chamber without light and a relative humidity of 95 to 99% and 20 to 24° C. for 24 h. Then the trial plants were cultivated for 6 days in a greenhouse chamber at 20-24° C. and a relative humidity between 65 and 70%. The extent of fungal attack on the leaves was visually assessed as % diseased leaf area.

[2] = system: Phakopsora pachyrhizi; assay: Use Example 3: protective control of soybean rust on soybeans (PHAKPA P2); format: in vivo; settings: 16 ppm, 2 days before inoculation, F129L strain, up to 14 days, untreated 90
Description: as §1
Use Example 3. Protective Control of Soybean Rust on Soybeans Caused by Phakopsora pachyrhizi (PHAKPA P2)
Leaves of potted soybean seedlings were sprayed to run-off with the previously described spray solution, containing the concentration of active ingredient or their mixture as described below. The plants were allowed to air-dry. The trial plants were cultivated for 2 days in a greenhouse chamber at 23-27° C. and a relative humidity between 60 and 80%. Then the plants were inoculated with spores of Phakopsora pachyrhizi. The strain used contains the amino acid substitution F129L in the mitochondrial cytochrome b protein conferring resistance to Qo inhibitors. To ensure the success the artificial inoculation, the plants were transferred to a humid chamber with a relative humidity of about 95% and 20 to 24° C. for 24 hr. The trial plants were cultivated for up to 14 days in a greenhouse chamber at 23 to 27° C. and a relative humidity between 60 and 80%. The extent of fungal attack on the leaves was visually assessed as % diseased leaf area, the disease level of untreated controls was usually higher than 85%.

[3] = system: Puccinia striiformis; assay: Use Example 9: curative control of wheat stripe rust on wheat (PUCCST K4); format: in vivo; settings: 16 ppm, untreated 90%
Description: as §1
Use Example 9. Curative Control of Wheat Stripe Rust on Wheat Caused by Puccinia striiformis (PUCCST K4)
The first two developed leaves of potted wheat seedling were inoculated with spores of Puccinia striiformis. To ensure the success of the artificial inoculation, the plants were transferred to a chamber without light and a temperature of 5° C. for 24 h. Then the trial plants were cultivated for 3 days in a greenhouse chamber at 16° C. and a relative humidity of minimum 75%. The plants were sprayed to run-off with the previously described spray solution, containing the concentration of active ingredient or their mixture as described below. The plants were allowed to air-dry. Then the trial plants were cultivated for up to 12 days in a greenhouse chamber at 16° C. and a relative humidity of minimum 75%. The extent of fungal attack on the leaves was visually assessed as % diseased leaf area.

[4] = system: Alternaria solani; assay: Use Example 1: preventative fungicidal control of early blight on tomatoes (ALTESO P1); format: in vivo; settings: 63 ppm, tomato, treated 1 day before inoculation, F129L strain, assessed after 5 days, untreated 85
Description: as §1
Use Example 1. Preventative Fungicidal Control of Early Blight on Tomatoes (Alternaria solani) (ALTESO P1)
Young seedlings of tomato plants were grown in pots. These plants were sprayed to run-off with previously described spray solution, containing the concentration of active ingredient or mixture mentioned in the table below. The next day the treated plants were inoculated with an aqueous suspension of Alternaria solani. The strain used contains the amino acid substitution F129L in the mitochondrial cytochrome b protein conferring resistance to Qo inhibitors. Then the trial plants were immediately transferred to a humid chamber. After 5 days at 18 to 20° C. and a saturated relative humidity, the extent of fungal attack on the leaves was visually assessed as % diseased leaf area.

[5] = system: Phakopsora pachyrhizi; assay: Use Example 2: curative control of soybean rust on soybeans (PHAKPA K2); format: in vivo; settings: 16 ppm, F129L strain, up to 14 days, untreated 90
Description: as §1
Use Example 2. Curative Control of Soybean Rust on Soybeans Caused by Phakopsora pachyrhizi (PHAKPA K2)
Leaves of potted soybean seedlings were inoculated with spores of Phakopsora pachyrhizi. The strain used contains the amino acid substitution F129L in the mitochondrial cytochrome b protein conferring resistance to Qo inhibitors. To ensure the success of the artificial inoculation, the plants were transferred to a humid chamber with a relative humidity of about 95% and 20 to 24° C. for 24 h. The next day the plants were cultivated for 1 day in a greenhouse chamber at 23-27° C. and a relative humidity between 60 and 80%. Then the plants were sprayed to run-off with the previously described spray solution, containing the concentration of active ingredient or their mixture as described below. The plants were allowed to air-dry. Then the trial plants were cultivated up to 14 days in a greenhouse chamber at 23-27° C. and a relative humidity between 60 and 80%. The extent of fungal attack on the leaves was visually assessed as % diseased leaf area.

[6] = system: Phakopsora pachyrhizi; assay: Use Example 14: activity against Asian soybean rust under semi field conditions; format: in vivo; settings: 100 g a.i./ha; for Efficacy, % / B14 Efficacy, %: Abbot's formula; for Efficacy, %: B14; for infection rate, %: B14 (14 days after second application); for B14 Efficacy, % / B14 infection rate, %: 14 days after second application, semi field, Brazil; for B14 infection rate, %: sprayed twice, 14 day interval
Description: Use Example 14. Activity Against Asian Soybean Rust (Phakopsora pachyrhizi) Under Semi Field Conditions
Soybeans were grown in an area covered with an insect proof net under natural temperature and light regime in Brazil. Seeds were sown in a tray, allowed to germinate and grow for 14-23 days, and afterwards transplanted to containers. Subsequently, the plants were grown for another 27-35 days before spray application.
The soybean plants were sprayed twice at a spray interval of 14 days. The spray solutions were prepared by mixing experimental formulations (100 g/l SC), in water, adding the adjuvant Mees™ (BASF, soybean oil methyl ester 824.3 g/L, EC) at 0.5 I/ha. The plants were sprayed in a mobile spray cabinet with a horizontal boom. The spray solutions were applied with 500 L/ha spray volume with a flat fan nozzle.
The plants were inoculated with natural population of Phakopsora pachyrhizi spore suspension one day after each spray application. Plants were incubated in a mobile chamber with a misting system at saturated humidity following each inoculation.
Soybean rust infestation was assessed as percent infected leaf area at 14 days after second application (B14). These percent values were converted in efficacies. The efficacy (E) was calculated as follows using Abbot's formula: […]

[7] = Table 3, untreated infection 56
[8] = Table 5, untreated infection 71%

Compound | Diseased leaf area (%) [1] | Diseased leaf area (%) [2] | Diseased leaf area (%) [3] | Diseased leaf area (%) [4] | Diseased leaf area (%) [5] | Efficacy, % ([6]; Table 6, untreated infection 62%) | infection rate, % ([6]; Table 6, untreated 62%) | Efficacy, % ([6]; Table 7, untreated infection 63%) | infection rate, % ([6]; Table 7, untreated 63%) | B14 Efficacy, % [6, 7] | B14 infection rate, % ([6]; Table 3, untreated 56) | B14 Efficacy, % ([6]; Table 4, untreated infection 52) | B14 infection rate, % ([6]; Table 4, untreated 52) | Efficacy, % [6, 8] | infection rate, % ([6]; Table 5, untreated 71%)
CO/C=C(/C(=O)OC)c1cccc(C)c1CO/N=C(\COC)c1c(F)cc(F)cc1F [Compound 4, methyl (E)-3-methoxy-2-[2-[[(Z)-[2-methoxy-1-(2,4,6-trifluorophenyl)ethylidene]amino]oxymethyl]-3-methyl-phenyl]prop-2-enoate] | 12% | 0% | 15% | 5% | 5% | 66% | 21% | – | – | – | – | – | – | – | –
CNC(=O)/C(=N/OC)c1cccc(C)c1CO/N=C(\COC)c1c(F)cc(OC)cc1F [Compound 7, (2E)-2-[2-[[(Z)-[1-(2,6-difluoro-4-methoxy-phenyl)-2-methoxy-ethylidene]amino]oxymethyl]-3-methyl-phenyl]-2-methoxyimino-N-methyl-acetamide] | 4% | 0% | 0% | – | 4% | – | – | 40% | 38% | – | – | – | – | – | –
CNC(=O)/C(=N/OC)c1cccc(C)c1CO/N=C(\COC)c1ccc(F)c(F)c1 [Compound 5, (2E)-2-[2-[[(Z)-[1-(3,4-difluorophenyl)-2-methoxy-ethylidene]amino]oxymethyl]-3-methylphenyl]-2-methoxyimino-N-methyl-acetamide] | 12% | 0% | 1% | 3% | 6% | – | – | – | – | 57% | 24% | – | – | – | –
COC/C(=N\OCc1c(C)cccc1/C(=N\OC)C(=O)OC)c1c(F)cc(F)cc1F [Compound 2, methyl (2E)-2-methoxyimino-2-[2-[[(Z)-[2-methoxy-1-(2,4,6-trifluorophenyl)ethylidene]amino]oxymethyl]-3-methyl-phenyl]acetate] | – | 6% | – | 13% | 2% | – | – | – | – | – | – | 54% | 24% | – | –
CNC(=O)/C(=N/OC)c1cccc(C)c1CO/N=C(\COC)c1c(F)cc(F)cc1F [Compound 1, (2E)-2-methoxyimino-2-[2-[[(Z)-[2-methoxy-1-(2,4,6-trifluorophenyl)ethylidene]amino]oxymethyl]-3-methyl-phenyl]-N-methyl-acetamide] | – | 0% | 0% | 11% | 0% | – | – | – | – | 57% | 24% | – | – | – | –
CO/C=C(/C(=O)OC)c1cccc(C)c1CO/N=C(\COC)c1ccc(Cl)cc1Cl [Compound 6, methyl (E)-2-[2-[[(Z)-[1-(2,4-dichlorophenyl)-2-methoxy-ethylidene]amino]oxymethyl]-3-methyl-phenyl]-3-methoxy-prop-2-enoate] | 5% | 13% | – | – | – | – | – | – | – | – | – | – | – | 56% | 31%
CO/C=C(/C(=O)OC)c1cccc(C)c1CO/N=C(\COC)c1ccc(F)cc1Cl [Compound 3] | – | 1% | 7% | 5% | – | – | – | – | – | – | – | – | – | 56% | 31%
